From patent US8716303B2, “N-(hetero)aryl-pyrrolidine derivatives of pyrazol-4-yl-pyrrolo[2,3-d]pyrimidines and pyrrol-3-yl-pyrrolo[2,3-d]pyrimidines as janus kinase inhibitors” (Incyte Corporation, priority 2009, dated 2014)
Structures can show the parent of a compound that is named as a salt.

How the values were obtained:
[1] = biological target: T1, human JAK1 (a.a. 837-1142) (Homo sapiens, UniProt P23458); test: In vitro JAK kinase assay (HTRF, phosphorylation of a biotinylated peptide), JAK1; type: biochemical
T1 construct: human JAK1 (a.a. 837-1142); His tag (N); made in house; host or cells: insect cells (baculovirus)
Method in brief: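 IC50s come from HTRF detection (Eu-Py20, SA-APC, 40 min binding) after 1 h RT reactions with 500 nM biotinylated peptide in Tris pH 7.8 buffer. ATP either 1 mM or Km-level, 90 μM for JAK1 and 30 μM for JAK2; enzymes are baculovirus-expressed His-tagged catalytic domains (JAK1 837-1142, JAK2 828-1132).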

Jak2 (a.a. 828-1132) = biological target: T2, Jak2 (a.a. 828-1132) (Homo sapiens, UniProt O60674); test: In vitro JAK kinase assay (HTRF, phosphorylation of a biotinylated peptide), JAK2, reported as JAK2/JAK1 ratio; type: biochemical
T2 construct: Jak2 (a.a. 828-1132); His tag (N); made in house; host or cells: insect cells (baculovirus)

[2] = Assay Conditions Km (ATP 90 μM for Jak1)
[3] = Assay Conditions Km (ATP 90 μM for Jak1, 30 μM for Jak2)

T2 sequence (O60674 828-1132): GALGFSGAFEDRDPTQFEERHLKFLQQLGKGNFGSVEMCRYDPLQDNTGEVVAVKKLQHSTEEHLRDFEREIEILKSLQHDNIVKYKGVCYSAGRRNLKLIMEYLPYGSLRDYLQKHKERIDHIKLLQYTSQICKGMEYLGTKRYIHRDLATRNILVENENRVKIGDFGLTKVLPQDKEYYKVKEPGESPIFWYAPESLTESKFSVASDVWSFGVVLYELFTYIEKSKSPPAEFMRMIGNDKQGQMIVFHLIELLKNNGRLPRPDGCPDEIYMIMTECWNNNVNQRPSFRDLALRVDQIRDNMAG
T1 sequence (P23458 849-1154): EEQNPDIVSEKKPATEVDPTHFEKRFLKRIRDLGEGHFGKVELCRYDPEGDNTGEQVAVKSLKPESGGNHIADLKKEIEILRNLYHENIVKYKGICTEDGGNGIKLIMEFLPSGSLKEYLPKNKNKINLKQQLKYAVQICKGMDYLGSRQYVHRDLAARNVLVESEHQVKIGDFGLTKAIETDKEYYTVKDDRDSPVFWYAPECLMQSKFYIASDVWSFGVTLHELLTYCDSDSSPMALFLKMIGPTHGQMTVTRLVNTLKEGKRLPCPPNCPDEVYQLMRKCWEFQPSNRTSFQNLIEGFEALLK

Structure (SMILES) | IC50 ([1]; Assay Conditions 1 mM ATP) [nM] | JAK2/JAK1 IC50 ratio (Jak2 (a.a. 828-1132); Assay Conditions 1 mM ATP) | IC50 [1, 2] [nM] | JAK2/JAK1 IC50 ratio (Jak2 (a.a. 828-1132); [3])
N#CC[C@@H]([C@H]1CCN(c2scc(O)c2C#N)C1)n1cc(-c2ncnc3[nH]ccc23)cn1 [Example 76, 2-((3S)-3-{(1S)-2-cyano-1-[4-(7H-pyrrolo[2,3-d]pyrimidin-4-yl)-1H-pyrazol-1-yl]ethyl}pyrrolidin-1-yl)-4-hydroxythiophene-3-carbonitrile] | < 50 | 51.1 |  | 
N#CC[C@@H]([C@H]1CCN(c2ncc(C(F)F)nc2C#N)C1)n1cc(-c2ncnc3[nH]ccc23)cn1 [Example 138, 3-((3S)-3-{(1S)-2-cyano-1-[4-(7H-pyrrolo[2,3-d]pyrimidin-4-yl)-1H-pyrazol-1-yl]ethyl}pyrrolidin-1-yl)-6-(difluoromethyl)pyrazine-2-carbonitrile trifluoroacetate] | < 50 | 17.5 |  | 
N#CC[C@@H]([C@H]1CCN(c2cccc(F)c2C#N)C1)n1cc(-c2ncnc3[nH]ccc23)cn1 [Example 54, 2-((3S)-3-{(1S)-2-cyano-1-[4-(7H-pyrrolo[2,3-d]pyrimidin-4-yl)-1H pyrazol-1-yl]ethyl}pyrrolidin-1-yl) 6-fluorobenzonitrile trifluoroacetate salt] | < 50 | 4.6 |  | 
N#CC[C@@H]([C@H]1CCN(c2nc(Br)ccc2F)C1)n1cc(-c2ncnc3[nH]ccc23)cn1.O=C(O)C(F)(F)F.O=C(O)C(F)(F)F [Example 88, (3S)-3-[(3S)-1-(6-bromo-3-fluoropyridin-2-yl)pyrrolidin-3-yl]-3-[4-(7H-pyrrolo[2,3-d]pyrimidin-4-yl)-1H-pyrazol-1-yl]propanenitrile bis(trifluoroacetate)] | < 50 | 40.0 |  | 
N#CC[C@@H]([C@H]1CCN(c2nccc(I)c2C#N)C1)n1cc(-c2ncnc3[nH]ccc23)cn1 [Example 122, 2-((3S)-3-{(1S)-2-cyano-1-[4-(7H-pyrrolo[2,3-d]pyrimidin-4-yl)-1H-pyrazol-1-yl]ethyl}pyrrolidin-1-yl)-4-iodonicotinonitrile trifluoroacetate] | < 50 | 188.0 |  | 
N#Cc1ncccc1N1CC[C@H](C(CF)n2cc(-c3ncnc4[nH]ccc34)cn2)C1 (stereo partly drawn) [Example 117, 3-((3S)-3-{2-fluoro-1-[4-(7H-pyrrolo[2,3-d]pyrimidin-4-yl)-1H-pyrazol-1-yl]ethyl}pyrrolidin-1-yl)pyridine-2-carbonitrile trifluoroacetate] | < 50 | 3.7 |  | 
N#CC[C@@H]([C@H]1CCN(c2nc(Cl)ccc2F)C1)n1cc(-c2ncnc3[nH]ccc23)cn1 [Example 94, (3S)-3-[(3S)-1-(6-chloro-3-fluoropyridin-2-yl)pyrrolidin-3-yl]-3-[4-(7H-pyrrolo[2,3-d]pyrimidin-4-yl)-1H-pyrazol-1-yl]propanenitrile trifluoroacetate] | < 50 | 17.9 |  | 
N#CCC(C1CCN(c2nccc(C#N)c2C#N)C1)n1cc(-c2ncnc3[nH]ccc23)cn1 (racemic) [Example 39, ±2-(3-{2-cyano-1-[4-(7H-pyrrolo[2,3-d]pyrimidin-4-yl)-1H-pyrazol-1-yl]ethyl}pyrrolidin-1-yl)pyridine-3,4-dicarbonitrile trifluoroacetate] | < 50 | 15.5 |  | 
N#CC[C@@H]([C@H]1CCN(c2nc(F)c(F)cc2F)C1)n1cc(-c2ncnc3[nH]ccc23)cn1 [Example 67, (3S)-3-[4-(7H-pyrrolo[2,3-d]pyrimidin-4-yl)-1H-pyrazol-1-yl]-3-[(3S)-1-(3,5,6-trifluoropyridin-2-yl)pyrrolidin-3-yl]propanenitrile trifluoroacetate salt] | < 50 | 5.6 |  | 
CN(C)c1ccnc(N2CCC(C(CC#N)n3cc(-c4ncnc5[nH]ccc45)cn3)C2)n1 (stereo not shown) [Example 6, 3-{1-[4-(dimethylamino)pyrimidin-2-yl]pyrrolidin-3-yl}-3-[4-(7H-pyrrolo[2,3-d]pyrimidin-4-yl)-1H-pyrazol-1-yl]propanenitrile] |  |  | < 50 | >5
N#CCC(C1CCN(c2nc(Br)cs2)C1)n1cc(-c2ncnc3[nH]ccc23)cn1 (stereo not shown) [Example 5, 3-[1-(4-bromo-1,3-thiazol-2-yl)pyrrolidin-3-yl]-3-[4-(7H-pyrrolo[2,3-d]pyrimidin-4-yl)-1H-pyrazol-1-yl]propanenitrile trifluoroacetate] |  |  | < 50 | 2.2
N#CC[C@@H]([C@H]1CCN(c2cccc(C#N)c2C#N)C1)n1cc(-c2ncnc3[nH]ccc23)cn1 [Example 49, 3-((3S)-3-{(1S)-2-cyano-1-[4-(7H-pyrrolo[2,3-d]pyrimidin-4-yl)-1H-pyrazol-1-yl]ethyl}pyrrolidin-1-yl)phthalonitrile trifluoroacetate] | < 50 | 10.2 |  | 
N#CCC(C1CCN(c2nc3cccc(F)c3o2)C1)n1ccc(-c2ncnc3[nH]ccc23)c1 (single isomer, unassigned) [Example 158-2, 3-[1-(7-fluoro-1,3-benzoxazol-2-yl)pyrrolidin-3-yl]-3-[3-(7H-pyrrolo[2,3-d]pyrimidin-4-yl)-1H-pyrrol-1-yl]propanenitrile] | < 50 | 19.0 |  | 
N#Cc1ccnc(N2CC[C@H](C(CF)n3cc(-c4ncnc5[nH]ccc45)cn3)C2)c1C#N (stereo partly drawn) [Example 120, 2-((3S)-3-(1-(4-(7H-pyrrolo[2,3-d]pyrimidin-4-yl)-1H-pyrazol-1-yl)-2-fluoroethyl)pyrrolidin-1-yl)pyridine-3,4-dicarbonitrile trifluoroacetate] | < 50 | 3.5 |  | 
N#CC[C@@H]([C@H]1CCN(c2ccnnc2C#N)C1)n1cc(-c2ncnc3[nH]ccc23)cn1 [Example 106, 4-((S)-3-((S)-1-(4-(7H-pyrrolo[2,3-d]pyrimidin-4-yl)-1H-pyrazol-1-yl)-2-cyanoethyl)pyrrolidin-1-yl) pyridazine-3-carbonitrile trifluoroacetate salt] | < 50 | 12.6 |  | 
N#CC[C@@H]([C@H]1CCN(c2nc(Cl)c(F)cc2N)C1)n1cc(-c2ncnc3[nH]ccc23)cn1.O=C(O)C(F)(F)F.O=C(O)C(F)(F)F [Example 91B, (3S)-3-[(3S)-1-(3-amino-6-chloro-5-fluoropyridin-2-yl)pyrrolidin-3-yl]-3-[4-(7H-pyrrolo[2,3-d]pyrimidin-4-yl)-1H-pyrazol-1-yl]propanenitrile bis(trifluoroacetate)] | < 50 | 7.0 |  | 
N#CCC(C1CCN(c2ncc3c(c2C#N)SCC3)C1)n1ccc(-c2ncnc3[nH]ccc23)c1 (single isomer, unassigned) [Example 174-1, 6-(3-{2-cyano-1-[3-(7H-pyrrolo[2,3-d]pyrimidin-4-yl)-1H-pyrrol-1-yl]ethyl}pyrrolidin-1-yl)-2,3-dihydrothieno[3,2-c]pyridine-7-carbonitrile] | < 50 | 28.5 |  | 
Cc1cnc(N2CC[C@H]([C@H](CC#N)n3cc(-c4ncnc5[nH]ccc45)cn3)C2)c(C#N)n1 [Example 145, 3-((3S)-3-{(1S)-2-cyano-1-[4-(7H-pyrrolo[2,3-d]pyrimidin-4-yl)-1H-pyrazol-1-yl]ethyl}pyrrolidin-1-yl)-6-methylpyrazine-2-carbonitrile trifluoroacetate] | < 50 | >11.1 |  | 
N#CC[C@@H]([C@H]1CCN(c2ccnc(Cl)c2C#N)C1)n1cc(-c2ncnc3[nH]ccc23)cn1 [Example 123, 2-chloro-4-((3S)-3-{(1S)-2-cyano-1-[4-(7H-pyrrolo[2,3-d]pyrimidin-4-yl)-1H-pyrazol-1-yl]ethyl}pyrrolidin-1-yl)nicotinonitrile trifluoroacetate] | < 50 | >16.7 |  | 
COc1ncnc(N2CC[C@H]([C@H](CC#N)n3cc(-c4ncnc5[nH]ccc45)cn3)C2)c1C#N [Example 98, 4-((S)-3-((S)-1-(4-(7H-pyrrolo[2,3-d]pyrimidin-4-yl)-1H-pyrazol-1-yl) 2-cyanoethyl)pyrrolidin-1-yl)-6-methoxypyrimidine-5-carbonitrile trifluoroacetate] | < 50 | >9.1 |  | 
N#CC[C@@H]([C@H]1CCN(c2cccnc2C#N)C1)n1cc(-c2ncnc3[nH]ccc23)cn1 [Example 68, 3-((3S)-3-{(1S)-2-cyano-1-[4-(7H-pyrrolo[2,3-d]pyrimidin-4-yl)-1H-pyrazol-1-yl]ethyl}pyrrolidin-1-yl) pyridine-2-carbonitrile trifluoroacetate salt] | < 50 | 8.2 |  | 
N#CCC(C1CCN(c2nc3cc(F)cnc3o2)C1)n1cc(-c2ncnc3[nH]ccc23)cn1 (single isomer, unassigned) [Example 15, 3-[1-(6-fluoro[1,3]oxazolo[5,4-b]pyridin-2-yl)pyrrolidin-3-yl]-3-[4-(7H-pyrrolo[2,3-d]pyrimidin-4-yl)-1H-pyrazol-1-yl]propanenitrile] |  |  | < 50 | 6.8
O=S1(=O)CCc2cc(F)c(N3CC[C@H](C(CF)n4cc(-c5ncnc6[nH]ccc56)cn4)C3)nc21 (stereo partly drawn) [Example 86, 4-(1-{2-fluoro-1-[(3S)-1-(5-fluoro-1,1-dioxido-2,3-dihydrothieno[2,3-b]pyridin-6-yl)pyrrolidin-3-yl]ethyl}-1H-pyrazol-4-yl)-7H-pyrrolo[2,3-d]pyrimidine tetrakis(trifluoroacetate)] | < 50 | 13.0 |  | 
